Activity calls are given as the source filed them. The rule behind the calls is not given here.
System: Mycobacterium tuberculosis
Assay: Antimycobacterial activity against Mycobacterium tuberculosis overexpressing Rv0560c-OE in iron-free GAST medium at 0.04 to 10 uM after 8 days by two fold serial dilution method
Format: functional, organism-based

For `Nc1ncnc2c1ncn2[C@@H]1O[C@H](COS(=O)(=O)NC(=O)c2ccccc2O)[C@@H](O)[C@H]1O`, the Activity was “Active”.

Source: ChEMBL document CHEMBL4145560, “Conformationally Constrained Cinnolinone Nucleoside Analogues as Siderophore Biosynthesis Inhibitors for Tuberculosis” (ACS Med Chem Lett, 2018)
